Experimental data as given in patent publication US12310975B2, “Modulators of BCL6 proteolysis and associated methods of use” (Arvinas Operations, Inc., priority 2019, dated 2025).
Where two headings read alike, the source gives them in different places.

Target: BCL6 (Homo sapiens (Human), UniProt P41182)
Assay: Immunofluorescence high content imaging of BCL6 degradation in T47D cells
Type: cell-based
Settings: for DC50: class symbols A-D, read-out: EC50 (nM)*
Summary of the method: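 T47D cells were treated 3 days at 37 °C with an 11-point 3-fold dilution series (top 0.1 or 1 μM), then fixed, permeabilized and immunostained for BCL6 with Alexa-488 secondary, CellMask and Hoechst. BCL6 signal was imaged at 10×, 4 fields/well, with top-hat smoothing.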

`CCn1c(=O)c(OCC(=O)NC)cc2cc(Nc3nc(N4CCN([C@H]5C[C@H](COc6ccc7c(c6)C(=O)N(C6CCC(=O)NC6=O)C7=O)N(C)C5)CC4)ncc3Cl)ccc21` (stereo partly drawn) [compound 371, 2-({6-[(5-chloro-2-{4-[(3S,5R)-5-({[2-(2,6-dioxopiperidin-3-yl)-1,3-dioxo-2,3-dihydro-1H-isoindol-5-yl]oxy}methyl)-1-methylpyrrolidin-3-yl]piperazin-1-yl}pyrimidin-4-yl)amino]-1-ethyl-2-oxo-1,2-dihydroquinolin-3-yl}oxy)-N-methylacetamide] showed a Dmax (T47D cells) of 50 to 70% and an IC50 (T47D cells) of at least 100 nM.

For `CCCn1c(=O)c(OCC(=O)NC)cc2cc(Nc3nc(N4CCN(CC5CCN(c6ccc7c(c6)C(=O)N(C6CCC(=O)NC6=O)C7=O)CC5)CC4)ncc3Cl)ccc21` (stereo not drawn) [compound 314, 2-{[6-({5-chloro-2-[4-({1-[2-(2,6-dioxopiperidin-3-yl)-1,3-dioxo-2,3-dihydro-1H-isoindol-5-yl]piperidin-4-yl}methyl)piperazin-1-yl]pyrimidin-4-yl}amino)-2-oxo-1-propyl-1,2-dihydroquinolin-3-yl]oxy}-N-methylacetamide], the Dmax (T47D cells) was 50 to 70% and the IC50 (T47D cells) was 10 to 50 nM.

`CNC(=O)COc1cc2cc(Nc3nc(N4CCC(CN5CCC6(CC5)CN(c5cccc7c5CN(C5CCC(=O)NC5=O)C7=O)C6)CC4)ncc3Cl)ccc2n(C(C)C)c1=O` (stereo not drawn) [compound 442, 2-{[6-({5-chloro-2-[4-({2-[2-(2,6-dioxopiperidin-3-yl)-1-oxo-2,3-dihydro-1H-isoindol-4-yl]-2,7-diazaspiro[3.5]nonan-7-yl}methyl)piperidin-1-yl]pyrimidin-4-yl}amino)-2-oxo-1-(propan-2-yl)-1,2-dihydroquinolin-3-yl]oxy}-N-methylacetamide] gave a Dmax (T47D cells) of at least 70% and an IC50 (T47D cells) of under 10 nM.

`CNC(=O)COc1cc2cc(Nc3nc(N4CCC(OC5CC6(C5)CN(c5cccc7c5C(=O)N(C5CCC(=O)NC5=O)C7=O)C6)CC4)ncc3Cl)ccc2n(C(C)C)c1=O` (stereo not drawn) [compound 363, 2-{[6-({5-chloro-2-[4-({2-[2-(2,6-dioxopiperidin-3-yl)-1,3-dioxo-2,3-dihydro-1H-isoindol-4-yl]-2-azaspiro[3.3]heptan-6-yl}oxy)piperidin-1-yl]pyrimidin-4-yl}amino)-2-oxo-1-(propan-2-yl)-1,2-dihydroquinolin-3-yl]oxy}-N-methylacetamide] gave a Dmax (T47D cells) of at least 70% and an IC50 (T47D cells) of under 10 nM.

`CNC(=O)COc1cc2cc(Nc3nc(N4CCC(CN5CC6(CCN(c7cccc8c7C(=O)N(C7CCC(=O)NC7=O)C8=O)CC6)C5)CC4)ncc3Cl)ccc2n(C(C)C)c1=O` (stereo not drawn) [compound 439, 2-{[6-({5-chloro-2-[4-({7-[2-(2,6-dioxopiperidin-3-yl)-1,3-dioxo-2,3-dihydro-1H-isoindol-4-yl]-2,7-diazaspiro[3.5]nonan-2-yl}methyl)piperidin-1-yl]pyrimidin-4-yl}amino)-2-oxo-1-(propan-2-yl)-1,2-dihydroquinolin-3-yl]oxy}-N-methylacetamide] was tested, and the Dmax (T47D cells) was 50 to 70% and the IC50 (T47D cells) was under 10 nM.

`CNC(=O)COc1cc2cc(Nc3nc(N4CCN(C(C)(C)C5CCN(c6cccc7c6C(=O)N(C6CCC(=O)NC6=O)C7=O)CC5)CC4)ncc3Cl)ccc2n(C)c1=O` (stereo not drawn) [compound 266, 2-((6-((5-chloro-2-(4-(2-(1-(2-(2,6-dioxopiperidin-3-yl)-1,3-dioxoisoindolin-4-yl)piperidin-4-yl)propan-2-yl)piperazin-1-yl)pyrimidin-4-yl)amino)-1-methyl-2-oxo-1,2-dihydroquinolin-3-yl)oxy)-N-methylacetamide] showed an IC50 of under 10 nM and a Dmax (T47D) of at least 70%.

`CCn1c(=O)c(OCC(=O)NC)cc2cc(Nc3nc(N4CCC(OC5CCN(c6cccc7c6C(=O)N(C6CCC(=O)NC6=O)C7=O)CC5)CC4)ncc3Cl)ccc21` (stereo not drawn) [compound 292, 2-{[6-({5-chloro-2-[4-({1-[2-(2,6-dioxopiperidin-3-yl)-1,3-dioxo-2,3-dihydro-1H-isoindol-4-yl]piperidin-4-yl}oxy)piperidin-1-yl]pyrimidin-4-yl}amino)-1-ethyl-2-oxo-1,2-dihydroquinolin-3-yl]oxy}-N-methylacetamide] gave an IC50 of under 10 nM and a Dmax (T47D) of 50 to 70%.

`CCn1c(=O)c(OCC(=O)NC)cc2cc(Nc3nc(N4CCC(OCC5CCN(c6ccc7c(c6)C(=O)N(C6CCC(=O)NC6=O)C7=O)CC5)CC4)ncc3Cl)ccc21` (stereo not drawn) [compound 329, 2-{[6-({5-chloro-2-[4-({1-[2-(2,6-dioxopiperidin-3-yl)-1,3-dioxo-2,3-dihydro-1H-isoindol-5-yl]piperidin-4-yl}methoxy)piperidin-1-yl]pyrimidin-4-yl}amino)-1-ethyl-2-oxo-1,2-dihydroquinolin-3-yl]oxy}-N-methylacetamide] gave a Dmax (T47D cells) of under 50% and an IC50 (T47D cells) of under 10 nM.

With `CNC(=O)COc1cc2cc(Nc3nc(N4CCC(c5cn(CCOCCOCCOCCOc6ccc7c(c6)C(=O)N(C6CCC(=O)NC6=O)C7=O)nn5)CC4)ncc3Cl)ccc2n(C)c1=O` (stereo not drawn) [compound 129, 2-((6-((5-chloro-2-(4-(1-(2-(2-(2-(2-((2-(2,6-dioxopiperidin-3-yl)-1,3-dioxoisoindolin-5-yl)oxy)ethoxy)ethoxy)ethoxy)ethyl)-1H-1,2,3-triazol-4-yl)piperidin-1-yl)pyrimidin-4-yl)amino)-1-methyl-2-oxo-1,2-dihydroquinolin-3-yl)oxy)-N-methylacetamide] the DC50 was over 100 nM.

Work on `CNC(=O)COc1cc2cc(Nc3nc(N4CCN(CC5CCN(c6ccc(C(=O)NC7CCC(=O)NC7=O)c(OC(C)C)c6)CC5)CC4)ncc3Cl)ccc2n(C)c1=O` (stereo not drawn) [compound 358, 4-[4-({4-[5-chloro-4-({1-methyl-3-[(methylcarbamoyl)methoxy]-2-oxo-1,2-dihydroquinolin-6-yl}amino)pyrimidin-2-yl]piperazin-1-yl}methyl)piperidin-1-yl]-N-(2,6-dioxopiperidin-3-yl)-2-(propan-2-yloxy)benzamide] yielded an IC50 (T47D cells) of at least 100 nM.

With `CNC(=O)COc1cc2cc(Nc3nc(N4C[C@@H](C)N(CC5CCN(c6ccc(C(=O)NC7CCC(=O)NC7=O)c(F)c6)CC5)[C@@H](C)C4)ncc3Cl)ccc2n(C)c1=O` (stereo partly drawn) [compound 284, 4-(4-{[(2R,6S)-4-[5-chloro-4-({1-methyl-3-[(methylcarbamoyl)methoxy]-2-oxo-1,2-dihydroquinolin-6-yl}amino)pyrimidin-2-yl]-2,6-dimethylpiperazin-1-yl]methyl}piperidin-1-yl)-N-(2,6-dioxopiperidin-3-yl)-2-fluorobenzamide] the IC50 was 10 to 50 nM and the Dmax (T47D) was under 50%.

Work on `CCn1c(=O)c(OCC(=O)NC)cc2cc(Nc3nc(N4CCC(CN5CC(C6CN(c7ccc8c(c7)C(=O)N(C7CCC(=O)NC7=O)C8=O)C6)C5)CC4)ncc3Cl)ccc21` (stereo not drawn) [compound 316, 2-{[6-({5-chloro-2-[4-({1′-[2-(2,6-dioxopiperidin-3-yl)-1,3-dioxo-2,3-dihydro-1H-isoindol-5-yl]-[3,3′-biazetidin]-1-yl}methyl)piperidin-1-yl]pyrimidin-4-yl}amino)-1-ethyl-2-oxo-1,2-dihydroquinolin-3-yl]oxy}-N-methylacetamide] yielded a Dmax (T47D cells) of 50 to 70% and an IC50 (T47D cells) of under 10 nM.

`CNC(=O)COc1cc2cc(Nc3nc(N4CCC(OC5CC6(CCN(c7ccc8c(c7)CN(C7CCC(=O)NC7=O)C8=O)CC6)C5)CC4)ncc3Cl)ccc2n(C(C)C)c1=O` (stereo not drawn) [compound 431, 2-{[6-({5-chloro-2-[4-({7-[2-(2,6-dioxopiperidin-3-yl)-1-oxo-2,3-dihydro-1H-isoindol-5-yl]-7-azaspiro[3.5]nonan-2-yl}oxy)piperidin-1-yl]pyrimidin-4-yl}amino)-2-oxo-1-(propan-2-yl)-1,2-dihydroquinolin-3-yl]oxy}-N-methylacetamide] gave a Dmax (T47D cells) of 50 to 70% and an IC50 (T47D cells) of under 10 nM.

`CNC(=O)COc1cc2cc(Nc3nc(N4C[C@@H](COc5ccc6c(c5)C(=O)N(C5CCC(=O)NC5=O)C6=O)O[C@@H](C)C4)ncc3Cl)ccc2n(C(C)C)c1=O` (stereo partly drawn) [compound 383, 2-{[6-({5-chloro-2-[(25,6S)-2-({[2-(2,6-dioxopiperidin-3-yl)-1,3-dioxo-2,3-dihydro-1H-isoindol-5-yl]oxy}methyl)-6-methylmorpholin-4-yl]pyrimidin-4-yl}amino)-2-oxo-1-(propan-2-yl)-1,2-dihydroquinolin-3-yl]oxy}-N-methylacetamide] was tested, and the Dmax (T47D cells) was 50 to 70% and the IC50 (T47D cells) was 10 to 50 nM.

`CNC(=O)COc1cc2cc(Nc3nc(N4CCC(Cc5cn(CCOCCOCCOCCOc6ccc7c(c6)C(=O)N(C6CCC(=O)NC6=O)C7=O)nn5)CC4)ncc3Cl)ccc2n(C)c1=O` (stereo not drawn) [compound 131, 2-((6-((5-chloro-2-(4-((1-(2-(2-(2-(2-((2-(2,6-dioxopiperidin-3-yl)-1,3-dioxoisoindolin-5-yl)oxy)ethoxy)ethoxy)ethoxy)ethyl)-1H-1,2,3-triazol-4-yl)methyl)piperidin-1-yl)pyrimidin-4-yl)amino)-1-methyl-2-oxo-1,2-dihydroquinolin-3-yl)oxy)-N-methylacetamide] showed a DC50 of over 100 nM.

Compound `CNC(=O)COc1cc2cc(Nc3nc(N4CCC(CCN5CCN(c6ccc7c(c6)C(=O)N(C6CCC(=O)NC6=O)C7=O)CC5)CC4)ncc3Cl)ccc2n(C)c1=O` (stereo not drawn) [compound 353, 2-{[6-({5-chloro-2-[4-(2-(4-[2-(2,6-dioxopiperidin-3-yl)-1,3-dioxo-2,3-dihydro-1H-isoindol-5-yl]piperazin-1-yl}ethyl)piperidin-1-yl]pyrimidin-4-yl}amino)-1-methyl-2-oxo-1,2-dihydroquinolin-3-yl]oxy}-N-methylacetamide] has a Dmax (T47D cells) of 50 to 70% and an IC50 (T47D cells) of under 10 nM.

With `CNC(=O)COc1cc2cc(Nc3nc(N4CCC(OCCOCCOCC(=O)N[C@H](C(=O)N5C[C@H](O)C[C@H]5C(=O)NCc5ccc(-c6scnc6C)cc5)C(C)(C)C)CC4)ncc3Cl)ccc2n(C)c1=O` [compound 70, (2S,4R)-1-((S)-2-(2-(2-(2-((1-(5-chloro-4-((1-methyl-3-(2-(methylamino)-2-oxoethoxy)-2-oxo-1,2-dihydroquinolin-6-yl)amino)pyrimidin-2-yl)piperidin-4-yl)oxy)ethoxy)ethoxy)acetamido)-3,3-dimethylbutanoyl)-4-hydroxy-N-(4-(4-methylthiazol-5-yl)benzyl)pyrrolidine-2-carboxamide] the DC50 was over 100 nM.
